One assay has as its target PI 3-kinase beta (Homo sapiens (Human), UniProt P42338). The following applies: read-out: Assay B PI3Kβ IC50.
A further assay has as its target mTOR (Homo sapiens (Human), UniProt P42345). Conditions: read-out: Assay G mTOR IC50.
The next assay has as its target PI 3-kinase alpha (Homo sapiens (Human), UniProt P42336). Conditions: read-out: Assay A PI3Kα IC50.
For another assay, the target named is Vps34 (Homo sapiens (Human), UniProt Q8NEB9). Conditions: read-out: Assay C VPS34 IC50.
The target in the next assay is PI 4-kinase beta (Homo sapiens (Human), UniProt Q9UBF8). Conditions: read-out: Assay D PI4Kβ IC50.

Each structure is given as a SMILES string. Counter-ions that a name gives are not always drawn.

The term IC50 denotes the concentration at which inhibition is half-maximal.

Chain of PI 3-kinase beta (P42338 whole entry, looked up): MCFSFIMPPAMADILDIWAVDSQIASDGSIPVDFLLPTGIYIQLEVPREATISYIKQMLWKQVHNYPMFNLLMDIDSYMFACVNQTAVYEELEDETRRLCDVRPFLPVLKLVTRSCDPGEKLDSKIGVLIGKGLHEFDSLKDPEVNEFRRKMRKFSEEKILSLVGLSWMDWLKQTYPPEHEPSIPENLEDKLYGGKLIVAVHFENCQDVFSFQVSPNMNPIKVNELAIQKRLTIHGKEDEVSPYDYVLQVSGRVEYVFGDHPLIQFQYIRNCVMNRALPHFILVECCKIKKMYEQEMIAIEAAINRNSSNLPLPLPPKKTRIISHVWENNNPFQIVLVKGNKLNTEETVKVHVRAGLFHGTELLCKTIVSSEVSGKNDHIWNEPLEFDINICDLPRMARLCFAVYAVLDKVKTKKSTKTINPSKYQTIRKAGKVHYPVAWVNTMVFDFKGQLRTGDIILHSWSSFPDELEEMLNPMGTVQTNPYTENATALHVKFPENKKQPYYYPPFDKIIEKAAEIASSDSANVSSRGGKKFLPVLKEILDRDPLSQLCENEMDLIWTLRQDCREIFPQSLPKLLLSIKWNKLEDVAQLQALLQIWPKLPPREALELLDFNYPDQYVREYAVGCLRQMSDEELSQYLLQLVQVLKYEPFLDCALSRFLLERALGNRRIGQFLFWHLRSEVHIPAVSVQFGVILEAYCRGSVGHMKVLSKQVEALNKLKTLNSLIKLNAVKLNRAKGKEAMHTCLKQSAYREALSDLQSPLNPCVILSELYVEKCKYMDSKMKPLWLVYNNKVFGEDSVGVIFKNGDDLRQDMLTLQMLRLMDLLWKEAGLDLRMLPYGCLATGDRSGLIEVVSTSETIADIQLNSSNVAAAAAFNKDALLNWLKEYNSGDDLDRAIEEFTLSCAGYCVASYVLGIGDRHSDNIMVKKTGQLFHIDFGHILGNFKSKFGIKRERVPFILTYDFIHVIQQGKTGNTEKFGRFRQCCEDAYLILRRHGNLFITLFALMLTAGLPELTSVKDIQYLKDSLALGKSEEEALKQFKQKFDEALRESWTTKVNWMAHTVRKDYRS
Chain of PI 3-kinase beta (P27986 whole entry partner, looked up): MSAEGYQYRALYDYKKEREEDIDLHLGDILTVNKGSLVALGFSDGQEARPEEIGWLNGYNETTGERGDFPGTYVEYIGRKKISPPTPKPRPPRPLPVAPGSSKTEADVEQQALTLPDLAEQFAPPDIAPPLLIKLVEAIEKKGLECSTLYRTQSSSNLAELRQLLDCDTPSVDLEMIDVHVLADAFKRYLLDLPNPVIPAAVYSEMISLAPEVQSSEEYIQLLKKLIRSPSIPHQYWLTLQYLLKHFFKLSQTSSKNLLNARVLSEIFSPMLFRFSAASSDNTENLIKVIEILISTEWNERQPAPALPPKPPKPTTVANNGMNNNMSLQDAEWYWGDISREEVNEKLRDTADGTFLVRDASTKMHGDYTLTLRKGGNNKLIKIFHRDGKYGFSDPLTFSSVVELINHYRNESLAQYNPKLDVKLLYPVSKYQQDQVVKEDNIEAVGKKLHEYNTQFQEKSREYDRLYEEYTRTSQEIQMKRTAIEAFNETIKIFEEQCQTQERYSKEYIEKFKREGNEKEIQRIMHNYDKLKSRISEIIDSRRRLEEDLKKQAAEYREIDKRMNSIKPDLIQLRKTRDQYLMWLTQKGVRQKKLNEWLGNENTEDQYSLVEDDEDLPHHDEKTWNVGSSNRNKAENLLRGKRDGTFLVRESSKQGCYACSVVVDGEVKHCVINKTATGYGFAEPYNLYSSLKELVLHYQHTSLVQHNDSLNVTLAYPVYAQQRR
Chain of PI 3-kinase alpha (P42336 whole entry, looked up): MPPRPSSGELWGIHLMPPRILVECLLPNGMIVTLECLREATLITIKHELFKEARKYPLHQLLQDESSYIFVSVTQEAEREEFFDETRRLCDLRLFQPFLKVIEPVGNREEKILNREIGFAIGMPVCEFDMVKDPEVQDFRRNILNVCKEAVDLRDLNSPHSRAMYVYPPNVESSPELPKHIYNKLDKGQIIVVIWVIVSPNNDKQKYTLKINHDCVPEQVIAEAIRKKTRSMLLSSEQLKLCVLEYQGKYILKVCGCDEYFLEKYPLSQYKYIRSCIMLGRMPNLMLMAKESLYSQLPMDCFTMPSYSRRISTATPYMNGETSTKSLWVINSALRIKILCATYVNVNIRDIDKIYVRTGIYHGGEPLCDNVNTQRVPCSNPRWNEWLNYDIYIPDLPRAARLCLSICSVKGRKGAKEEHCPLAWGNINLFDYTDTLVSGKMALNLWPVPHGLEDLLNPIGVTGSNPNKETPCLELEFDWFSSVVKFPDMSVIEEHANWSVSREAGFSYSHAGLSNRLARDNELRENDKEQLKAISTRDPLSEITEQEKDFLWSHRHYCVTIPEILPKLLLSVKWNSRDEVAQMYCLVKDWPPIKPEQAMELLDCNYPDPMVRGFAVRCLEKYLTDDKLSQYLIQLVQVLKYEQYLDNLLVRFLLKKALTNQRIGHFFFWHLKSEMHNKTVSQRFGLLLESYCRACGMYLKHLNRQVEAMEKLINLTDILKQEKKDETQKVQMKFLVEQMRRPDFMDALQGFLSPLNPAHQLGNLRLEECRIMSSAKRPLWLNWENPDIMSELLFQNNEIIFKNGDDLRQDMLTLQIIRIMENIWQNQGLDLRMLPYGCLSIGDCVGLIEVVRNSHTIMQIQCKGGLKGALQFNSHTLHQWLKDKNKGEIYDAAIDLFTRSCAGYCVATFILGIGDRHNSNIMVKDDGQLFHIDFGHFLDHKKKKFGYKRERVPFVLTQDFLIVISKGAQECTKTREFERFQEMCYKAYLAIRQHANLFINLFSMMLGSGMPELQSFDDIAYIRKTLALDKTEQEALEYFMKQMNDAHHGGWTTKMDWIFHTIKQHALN
Chain of PI 3-kinase alpha (P27986 whole entry partner, looked up): as the sequence (P27986 whole entry partner, looked up) above
Chain of PI 4-kinase beta (Q9UBF8 whole entry): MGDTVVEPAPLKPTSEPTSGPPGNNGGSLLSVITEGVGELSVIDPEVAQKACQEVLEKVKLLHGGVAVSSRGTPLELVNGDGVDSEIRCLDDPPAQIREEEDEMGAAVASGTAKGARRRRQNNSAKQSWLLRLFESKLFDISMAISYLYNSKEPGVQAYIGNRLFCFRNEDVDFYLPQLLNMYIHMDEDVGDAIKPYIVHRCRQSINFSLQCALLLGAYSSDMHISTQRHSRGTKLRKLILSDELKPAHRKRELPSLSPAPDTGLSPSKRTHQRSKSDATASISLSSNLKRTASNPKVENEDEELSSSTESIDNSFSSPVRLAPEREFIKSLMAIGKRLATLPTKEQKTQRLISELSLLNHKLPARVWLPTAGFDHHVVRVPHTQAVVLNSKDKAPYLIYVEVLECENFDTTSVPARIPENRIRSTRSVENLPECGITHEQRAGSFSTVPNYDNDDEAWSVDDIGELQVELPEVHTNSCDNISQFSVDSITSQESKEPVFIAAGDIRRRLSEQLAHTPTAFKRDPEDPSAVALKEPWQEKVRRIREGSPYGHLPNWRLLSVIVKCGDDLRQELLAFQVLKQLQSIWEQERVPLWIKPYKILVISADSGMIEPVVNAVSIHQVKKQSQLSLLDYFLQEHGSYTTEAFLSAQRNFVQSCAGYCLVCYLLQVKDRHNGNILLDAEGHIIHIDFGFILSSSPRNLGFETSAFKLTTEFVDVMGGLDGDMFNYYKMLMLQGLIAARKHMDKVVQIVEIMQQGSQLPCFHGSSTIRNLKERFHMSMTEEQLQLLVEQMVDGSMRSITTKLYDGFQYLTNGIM
Chain of Vps34 (Q8NEB9 whole entry): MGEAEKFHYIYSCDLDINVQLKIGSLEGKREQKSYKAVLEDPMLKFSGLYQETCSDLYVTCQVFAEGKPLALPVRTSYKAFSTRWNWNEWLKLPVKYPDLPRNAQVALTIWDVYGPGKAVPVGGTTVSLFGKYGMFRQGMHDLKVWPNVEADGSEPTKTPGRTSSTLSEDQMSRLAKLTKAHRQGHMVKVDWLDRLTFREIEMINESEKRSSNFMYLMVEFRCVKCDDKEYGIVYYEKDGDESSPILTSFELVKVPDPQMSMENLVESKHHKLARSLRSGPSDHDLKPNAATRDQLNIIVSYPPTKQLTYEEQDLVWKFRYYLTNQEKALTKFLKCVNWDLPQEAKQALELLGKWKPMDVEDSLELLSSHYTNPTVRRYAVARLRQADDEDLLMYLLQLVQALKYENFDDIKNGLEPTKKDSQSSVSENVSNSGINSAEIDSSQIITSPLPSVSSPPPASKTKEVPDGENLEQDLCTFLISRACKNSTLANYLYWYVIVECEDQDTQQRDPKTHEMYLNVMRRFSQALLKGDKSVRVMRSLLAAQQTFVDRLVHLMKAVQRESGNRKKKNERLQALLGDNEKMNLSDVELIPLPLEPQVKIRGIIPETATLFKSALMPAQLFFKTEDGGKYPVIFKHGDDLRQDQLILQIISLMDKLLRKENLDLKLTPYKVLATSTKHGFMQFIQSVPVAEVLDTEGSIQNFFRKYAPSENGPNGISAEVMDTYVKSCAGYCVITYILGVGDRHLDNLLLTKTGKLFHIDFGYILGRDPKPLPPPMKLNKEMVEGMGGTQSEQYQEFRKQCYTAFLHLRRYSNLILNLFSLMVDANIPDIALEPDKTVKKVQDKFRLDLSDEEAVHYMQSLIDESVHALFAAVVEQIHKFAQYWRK

Take `Cc1noc(-c2cc(-c3cc(S(=O)(=O)NCCN)ccc3C)cnc2N)n1` [Example 37.29, 3-(6-Amino-5-(3-methyl-1,2,4-oxadiazol-5-yl)pyridin-3-yl)-N-(2-aminoethyl)-4-methylbenzenesulfonamide]: the half-inhibitory concentration (IC50) at PI 3-kinase beta is 910 nM; at mTOR, over 10000 nM; on PI 3-kinase alpha, 910 nM; on Vps34, over 10000 nM; at PI 4-kinase beta, 7100 nM.
Turning to `Cc1ncc(-c2cc(-c3cc(S(=O)(=O)NCC4CCCOC4)ccc3C)cnc2N)o1` (stereo not shown) [Example 104.8, 3-(6-amino-5-(2-methyloxazol-5-yl)pyridin-3-yl)-4-methyl-N-((tetrahydro-2H-pyran-3-yl)methyl)benzenesulfon-amide], the figures for the IC50 on PI 3-kinase beta, on Vps34 and on PI 4-kinase beta were 800 nM, 4800 nM and 2000 nM, respectively.
Consider `Cc1cc(-c2cc(-c3cc(S(=O)(=O)N4CC(C)(O)C4)ccc3C)cnc2N)on1` [Example 37.28, 1-((3-(6-Amino-5-(3-methylisoxazol-5-yl)pyridin-3-yl)-4-methylphenyl)sulfonyl)-3-methylazetidin-3-ol], for which the half-maximal inhibitory concentration (IC50) was 3800 nM at PI 3-kinase beta, over 10000 nM at Vps34 and 2800 nM on PI 4-kinase beta.
In the case of `Cc1cc(-c2cc(-c3cc(S(=O)(=O)NCC(F)(F)F)ccc3C)cnc2N)on1` [Example 39, 3-(6-Amino-5-(3-methylisoxazol-5-yl)pyridin-3-yl)-4-methyl-N-(2,2,2-trifluoroethyl)benzenesulfonamide], the half-maximal inhibitory concentration (IC50) at PI 3-kinase beta is 3700 nM; at PI 3-kinase alpha it was 450 nM; on Vps34, over 10000 nM; at PI 4-kinase beta, 1300 nM.
For `Cc1cc(-c2cc(-c3cc(S(=O)(=O)N[C@H]4CC[C@H](O)CC4)ccc3C)cnc2N)on1` [Example 5.4, trans 3-(6-Amino-5-(3-methylisoxazol-5-yl)pyridin-3-yl)-N-(-4-hydroxycyclohexyl)-4-methylbenzenesulfon-amide hydrochloride], the IC50 on PI 3-kinase alpha is 250 nM; at Vps34, over 10000 nM.
In the case of `Cc1cc(-c2cc(-c3cc(S(=O)(=O)N4CC[C@H](N(C)C)C4)ccc3C)cnc2N)on1` [Example 19.22, (S)-5-(5-((3-(dimethylamino)pyrrolidin-1-yl)sulfonyl)-2-methylphenyl)-3-(3-methylisoxazol-5-yl)pyridin-2-amine acetic acid salt], the IC50 at PI 3-kinase beta was 5800 nM; on PI 3-kinase alpha, 2000 nM; at Vps34, over 10000 nM; on PI 4-kinase beta, 8600 nM.
Turning to `Cc1ncc(-c2cc(-c3cc(S(=O)(=O)NC4CC5(CC(O)C5)C4)ccc3C)cnc2N)s1` (stereo not shown) [Example 28, 3-(6-Amino-5-(2-methylthiazol-5-yl)pyridin-3-yl)-N-(6-hydroxyspiro[3.3]heptan-2-yl)-4-methylbenzenesulfonamide], the IC50 on PI 3-kinase beta turned out to be 450 nM; at PI 3-kinase alpha, 50 nM; at Vps34, 2000 nM; at PI 4-kinase beta, 680 nM.
The corresponding values for `Cc1ncc(-c2cc(-c3cc(S(=O)(=O)NCC4COC4)ccc3C)cnc2N)s1` [Example 83.2, 3-(6-Amino-5-(2-methylthiazol-5-yl)pyridin-3-yl)-4-methyl-N-(oxetan-3-ylmethyl)benzenesulfonamide] are 6200 nM, 400 nM, 6200 nM and 2400 nM.
The corresponding values for `Cc1ncc(-c2cc(-c3cc(S(=O)(=O)NC4CCC(O)(C(F)(F)F)C4)ccc3C)cnc2N)o1` (stereo not shown) [Example 114.4, 3-(6-amino-5-(2-methyloxazol-5-yl)pyridin-3-yl)-N-(3-hydroxy-3-(trifluoromethyl)cyclo-pentyl)-4-methylbenzenesulfon-amide] are 1200 nM, 80 nM, 1200 nM and 630 nM.
On to `Cc1cc(-c2cc(-c3cc(S(=O)(=O)N[C@H]4CC[C@H](O)CC4)ccc3C)cnc2N)ccn1` [Example 4.3, trans 3-(2-Amino-2′-methyl-[3,4′-bipyridin]-5-yl)-N-(4-hydroxycyclohexyl)-4-methyl-benzenesulfonamide], for which the IC50 on PI 3-kinase beta is 7200 nM; at mTOR it was 7300 nM; at PI 3-kinase alpha, 260 nM; on Vps34 it was over 10000 nM; at PI 4-kinase beta it was 1700 nM.
As for `Cc1ncc(-c2cc(-c3cc(S(=O)(=O)N[C@H]4CCC[C@H](O)C4)ccc3C)cnc2N)o1` [Example 112, 3-(6-amino-5-(2-methyloxazol-5-yl)pyridin-3-yl)-N-((1S,3S)-3-hydroxycyclohexyl)-4-methylbenzenesulfonamide], the concentration for half-maximal inhibition (IC50) on PI 3-kinase beta was 660 nM; on PI 3-kinase alpha, 140 nM; at Vps34 it was 3500 nM; on PI 4-kinase beta, 730 nM.
For `Cc1ncc(-c2cc(-c3cc(S(=O)(=O)NCCO)ccc3C)cnc2N)s1` [Example 83.5, 3-(6-Amino-5-(2-methylthiazol-5-yl)pyridin-3-yl)-N-(2-hydroxyethyl)-4-methylbenzenesulfonamide], the IC50 at PI 3-kinase beta worked out at 3400 nM; at PI 3-kinase alpha, 430 nM; at Vps34 it was 5200 nM; at PI 4-kinase beta it was 2800 nM.
For the molecule `Cc1ncc(-c2cc(-c3cc(S(=O)(=O)NCC(C)(C)CO)ccc3C)cnc2N)s1` [Example 83.4, 3-(6-Amino-5-(2-methylthiazol-5-yl)pyridin-3-yl)-N-(3-hydroxy-2,2-dimethylpropyl)-4-methylbenzenesulfonamide], the IC50 on PI 3-kinase beta came to 2100 nM; at PI 3-kinase alpha, 350 nM; on Vps34, 2200 nM; at PI 4-kinase beta, 1300 nM.
With `Cc1ncc(-c2cc(-c3cc(S(=O)(=O)NCC4(O)CCOCC4)ccc3C)cnc2N)o1` [Example 114.3, 3-(6-amino-5-(2-methyloxazol-5-yl)pyridin-3-yl)-N-((4-hydroxytetrahydro-2H-pyran-4-yl)methyl)-4-methylbenzenesulfon-amide], the IC50 at PI 3-kinase beta was 8400 nM; at PI 3-kinase alpha, 590 nM; on Vps34, over 10000 nM; at PI 4-kinase beta, 8100 nM.
Regarding `Cc1ncc(-c2cc(-c3cc(S(=O)(=O)NCC4(O)CC4)ccc3C)cnc2N)o1` [Example 114.1, 3-(6-amino-5-(2-methyloxazol-5-yl)pyridin-3-yl)-N-((1-hydroxycyclopropyl)methyl)-4-methylbenzenesulfon-amide], the IC50 on PI 3-kinase alpha is 250 nM; at Vps34, 3400 nM; at PI 4-kinase beta it was 4500 nM.
Turning to `Cc1cc(-c2cc(-c3cc(S(=O)(=O)NC[C@@H]4CCCO4)ccc3C)cnc2N)on1` [Example 40, (S)-3-(6-Amino-5-(3-methylisoxazol-5-yl)pyridin-3-yl)-4-methyl-N-((tetrahydrofuran-2-yl)methyl)benzenesulfonamide], the IC50 on PI 3-kinase beta is 4000 nM; on Vps34, over 10000 nM; at PI 4-kinase beta, 3200 nM.
Take `Cc1cnn(-c2cc(-c3cc(S(=O)(=O)NCC(C)(C)O)ccc3C)cnc2N)c1` [Example 60, 3-(6-Amino-5-(4-methyl-1H-pyrazol-1-yl)pyridin-3-yl)-N-(2-hydroxy-2-methylpropyl)-4-methylbenzenesulfonamide]: the half-maximal inhibitory concentration (IC50) at PI 3-kinase beta, at mTOR and at Vps34 was over 10000 nM throughout.
In the case of `Cc1ncc(-c2cc(-c3cc(S(=O)(=O)NC(CO)C(F)(F)F)ccc3C)cnc2N)o1` (stereo not shown) [Example 114.2, 3-(6-amino-5-(2-methyloxazol-5-yl)pyridin-3-yl)-4-methyl-N-(1,1,1-trifluoro-3-hydroxypropan-2-yl)benzenesulfonamide], the IC50 worked out at 2800 nM on PI 3-kinase beta, 410 nM at PI 3-kinase alpha, 4400 nM on Vps34 and 2300 nM on PI 4-kinase beta.
In the case of `Cc1cc(-c2cc(-c3cc(S(=O)(=O)NCC(C)(C)O)ccc3C)cnc2N)sn1` [Example 4.8, 3-(6-Amino-5-(3-methylisothiazol-5-yl)pyridin-3-yl)-N-(2-hydroxy-2-methylpropyl)-4-methyl-benzenesulfonamide hydrochloride], the concentration for half-maximal inhibition (IC50) at mTOR was over 10000 nM; on Vps34, over 10000 nM; at PI 4-kinase beta, 3150 nM.
Turning to `Cc1ncc(-c2cc(-c3cc(S(=O)(=O)NCCC(C)(C)O)ccc3C)cnc2N)o1` [Example 13, 3-[6-Amino-5-(2-methyl-oxazol-5-yl)-pyridin-3-yl]-N-(3-hydroxy-3-methyl-butyl)-4-methyl-benzenesulfonamide, hydrochloride salt], the 50% inhibitory concentration (IC50) at mTOR is 1600 nM; at Vps34, over 10000 nM; at PI 4-kinase beta it was 4400 nM.
Consider `Cc1ccc(S(=O)(=O)NCC(C)(C)O)cc1-c1cnc(N)c(-c2cnn(C)n2)c1` [Example 4.4, 3-(6-amino-5-(2-methyl-2H-1,2,3-triazol-4-yl)pyridin-3-yl)-N-(2-hydroxy-2-methylpropyl)-4-methylbenzenesulfonamide hydrochloride], for which the results for the IC50 at mTOR, on Vps34 and on PI 4-kinase beta were over 10000 nM, over 10000 nM and 8200 nM, respectively.
In the case of `Cc1noc(-c2cc(-c3cc(S(=O)(=O)NC4CCOCC4)ccc3C)cnc2N)n1` [Example 49, 3-(6-Amino-5-(3-methyl-1,2,4-oxadiazol-5-yl)pyridin-3-yl)-4-methyl-N-(tetrahydro-2H-pyran-4-yl)benzenesulfonamide], the IC50 is 8100 nM on mTOR, over 10000 nM on Vps34 and 6800 nM on PI 4-kinase beta.
As to `Cc1noc(-c2cc(-c3cc(S(=O)(=O)NCC(C)(C)O)c(C)cc3F)cnc2N)n1` [Example 113, 5-(6-amino-5-(3-methyl-1,2,4-oxadiazol-5-yl)pyridin-3-yl)-4-fluoro-N-(2-hydroxy-2-methylpropyl)-2-methylbenzenesulfonamide], the IC50 was 8850 nM at PI 3-kinase beta, 1150 nM at PI 3-kinase alpha and over 10000 nM at Vps34.

The values above are taken from patent US10112926B2 (priority 2014, dated 2018).
